Data taken from PubChem BioAssay AID1918952 (Molecular Pharmacology Branch, DTP, NCI, 2023).
Values joined by “and” are separate entries in the source; they are usually repeats but may differ in a detail not shown here. Equal values may be shown once.

Test system: LG0703-F948-PDC complex spheroid viability
Assay: Anticancer human tumor LG0703-F948-PDC patient-derived lung adenocarcinoma cell line growth inhibition
Details: for viability, T/C: stronger effect = lower value
Outline: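 Drug combinations with the LSD1 inhibitor iadademstat tested on tumor cells co-cultured as spheroids with endothelial cells and mesenchymal stem cells. Concentrations descended in half-log increments from clinical Cmax or 10 microM.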

[1] = curve of first compound, second compound 0.1 µM
[2] = curve of first compound, second compound 0.316 µM
[3] = curve of first compound, second compound 1 µM
[4] = curve of first compound, second compound 3.16 µM
[5] = curve of first compound, second compound 10 µM
[6] = second compound 0.1 µM, first compound 0.000316 µM
[7] = second compound 0.1 µM, first compound 0.001 µM
[8] = second compound 0.1 µM, first compound 0.00316 µM
[9] = second compound 0.1 µM, first compound 0.01 µM
[10] = second compound 0.1 µM, first compound 0.0316 µM
[11] = second compound 0.1 µM, first compound 0.1 µM
[12] = second compound 0.316 µM, first compound 0.000316 µM
[13] = second compound 0.316 µM, first compound 0.001 µM
[14] = second compound 0.316 µM, first compound 0.00316 µM
[15] = second compound 0.316 µM, first compound 0.01 µM
[16] = second compound 0.316 µM, first compound 0.0316 µM
[17] = second compound 0.316 µM, first compound 0.1 µM
[18] = second compound 1 µM, first compound 0.000316 µM
[19] = second compound 1 µM, first compound 0.001 µM
[20] = second compound 1 µM, first compound 0.00316 µM
[21] = second compound 1 µM, first compound 0.01 µM
[22] = second compound 1 µM, first compound 0.0316 µM
[23] = second compound 1 µM, first compound 0.1 µM
[24] = second compound 3.16 µM, first compound 0.000316 µM
[25] = second compound 3.16 µM, first compound 0.001 µM
[26] = second compound 3.16 µM, first compound 0.00316 µM
[27] = second compound 3.16 µM, first compound 0.01 µM
[28] = second compound 3.16 µM, first compound 0.0316 µM
[29] = second compound 3.16 µM, first compound 0.1 µM
[30] = second compound 10 µM, first compound 0.000316 µM
[31] = second compound 10 µM, first compound 0.001 µM
[32] = second compound 10 µM, first compound 0.00316 µM
[33] = second compound 10 µM, first compound 0.01 µM
[34] = second compound 10 µM, first compound 0.0316 µM
[35] = second compound 10 µM, first compound 0.1 µM
[36] = second compound 0.1 µM, first compound 0.316 µM
[37] = second compound 0.1 µM, first compound 1 µM
[38] = second compound 0.316 µM, first compound 0.316 µM
[39] = second compound 0.316 µM, first compound 1 µM
[40] = second compound 1 µM, first compound 0.316 µM
[41] = second compound 1 µM, first compound 1 µM
[42] = second compound 3.16 µM, first compound 0.316 µM
[43] = second compound 3.16 µM, first compound 1 µM
[44] = second compound 10 µM, first compound 0.316 µM
[45] = second compound 10 µM, first compound 1 µM
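Note: spheroids exposed to agents for seven days before readout.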
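Throughout, for viability, T/C: 100% = DMSO vehicle control wells as normalization base.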

Cn1ncnc1C1c2n[nH]c(=O)c3cc(F)cc(c23)NC1c1ccc(F)cc1 (centres undefined) + NC1CCC(NC2CC2c2ccccc2)CC1
IC50 [1]: > 100 nM | IC50 [2]: > 100 nM | IC50 [3]: > 100 nM | IC50 [4]: > 100 nM | IC50 [5]: > 100 nM | viability, T/C [6]: 102% | viability, T/C [7]: 96.2% | viability, T/C [8]: 93.1% | viability, T/C [9]: 104% | viability, T/C [10]: 88.4% | viability, T/C [11]: 97.8% | viability, T/C [12]: 111% | viability, T/C [13]: 108% | viability, T/C [14]: 95.8% | viability, T/C [15]: 113% | viability, T/C [16]: 93.1% | viability, T/C [17]: 96.9% | viability, T/C [18]: 113% | viability, T/C [19]: 128% | viability, T/C [20]: 116% | viability, T/C [21]: 111% | viability, T/C [22]: 115% | viability, T/C [23]: 97.7% | viability, T/C [24]: 122% | viability, T/C [25]: 133% | viability, T/C [26]: 115% | viability, T/C [27]: 123% | viability, T/C [28]: 117% | viability, T/C [29]: 122% | viability, T/C [30]: 108% | viability, T/C [31]: 123% | viability, T/C [32]: 115% | viability, T/C [33]: 117% | viability, T/C [34]: 111% | viability, T/C [35]: 121%

CC1COCCN1c1cc(-c2ccnn2C)c2ccnc(-c3ccn[nH]3)c2n1 (centres undefined)
viability, T/C (compound 0.00316 µM): 66.6% and 63.7% | viability, T/C (compound 0.01 µM): 59.2% and 61.9% | viability, T/C (compound 0.0316 µM): 47.8% and 42.4% | viability, T/C (compound 0.1 µM): 39.4% and 29.3% | viability, T/C (compound 0.316 µM): 28.8% and 27.1% | viability, T/C (compound 1 µM): 14% and 10.7% | IC50 (curve of compound): 29 nM and 19.7 nM

CC[C@@]1(O)C(=O)OCc2c1cc1n(c2=O)Cc2cc3c(CN(C)C)c(O)ccc3nc2-1 + NC1CC1c1ccc(-c2cccc(O)c2)cc1
IC50 [1]: > 100 nM | IC50 [2]: > 100 nM | IC50 [3]: > 100 nM | IC50 [4]: > 100 nM | IC50 [5]: > 100 nM | viability, T/C [6]: 117% | viability, T/C [7]: 116% | viability, T/C [8]: 106% | viability, T/C [9]: 84.8% | viability, T/C [10]: 70% | viability, T/C [11]: 49.7% | viability, T/C [12]: 118% | viability, T/C [13]: 107% | viability, T/C [14]: 106% | viability, T/C [15]: 82.8% | viability, T/C [16]: 64.5% | viability, T/C [17]: 55.3% | viability, T/C [18]: 114% | viability, T/C [19]: 109% | viability, T/C [20]: 97.8% | viability, T/C [21]: 95.2% | viability, T/C [22]: 67.1% | viability, T/C [23]: 54.3% | viability, T/C [24]: 108% | viability, T/C [25]: 97.2% | viability, T/C [26]: 100% | viability, T/C [27]: 89.2% | viability, T/C [28]: 81.9% | viability, T/C [29]: 71.5% | viability, T/C [30]: 103% | viability, T/C [31]: 115% | viability, T/C [32]: 107% | viability, T/C [33]: 76.5% | viability, T/C [34]: 78.8% | viability, T/C [35]: 62.1%

CCc1c2c(nc3ccc(O)cc13)-c1cc3c(c(=O)n1C2)COC(=O)[C@]3(O)CC + NC1CC1c1ccc(-c2cccc(O)c2)cc1
IC50 [1]: 1.2 nM | IC50 [2]: 1.31 nM | IC50 [3]: 2.33 nM | IC50 [4]: 3.09 nM | IC50 [5]: 2.61 nM | viability, T/C (second compound 0.1 µM, first compound 0.000949 µM): 55.8% | viability, T/C (second compound 0.1 µM, first compound 0.003 µM): 29.2% | viability, T/C (second compound 0.1 µM, first compound 0.00949 µM): 21.3% | viability, T/C (second compound 0.1 µM, first compound 0.03 µM): 11.7% | viability, T/C (second compound 0.1 µM, first compound 0.0949 µM): 5.98% | viability, T/C (second compound 0.1 µM, first compound 0.3 µM): 3.08% | viability, T/C (second compound 0.316 µM, first compound 0.000949 µM): 54.8% | viability, T/C (second compound 0.316 µM, first compound 0.003 µM): 37.7% | viability, T/C (second compound 0.316 µM, first compound 0.00949 µM): 24.2% | viability, T/C (second compound 0.316 µM, first compound 0.03 µM): 12.6% | viability, T/C (second compound 0.316 µM, first compound 0.0949 µM): 5.51% | viability, T/C (second compound 0.316 µM, first compound 0.3 µM): 2.54% | viability, T/C (second compound 1 µM, first compound 0.000949 µM): 68.2% | viability, T/C (second compound 1 µM, first compound 0.003 µM): 44.7% | viability, T/C (second compound 1 µM, first compound 0.00949 µM): 25.4% | viability, T/C (second compound 1 µM, first compound 0.03 µM): 11.7% | viability, T/C (second compound 1 µM, first compound 0.0949 µM): 5.78% | viability, T/C (second compound 1 µM, first compound 0.3 µM): 2.05% | viability, T/C (second compound 3.16 µM, first compound 0.000949 µM): 69.9% | viability, T/C (second compound 3.16 µM, first compound 0.003 µM): 49.7% | viability, T/C (second compound 3.16 µM, first compound 0.00949 µM): 29.8% | viability, T/C (second compound 3.16 µM, first compound 0.03 µM): 12.2% | viability, T/C (second compound 3.16 µM, first compound 0.0949 µM): 2.96% | viability, T/C (second compound 3.16 µM, first compound 0.3 µM): 1.53% | viability, T/C (second compound 10 µM, first compound 0.000949 µM): 68.4% | viability, T/C (second compound 10 µM, first compound 0.003 µM): 47.3% | viability, T/C (second compound 10 µM, first compound 0.00949 µM): 23.1% | viability, T/C (second compound 10 µM, first compound 0.03 µM): 8% | viability, T/C (second compound 10 µM, first compound 0.0949 µM): 1.01% | viability, T/C (second compound 10 µM, first compound 0.3 µM): 0.49%

COc1cc(Nc2ncc3c(n2)-c2ccc(Cl)cc2C(c2c(F)cccc2OC)=NC3)ccc1C(=O)O + NC1CC1c1ccc(-c2cccc(O)c2)cc1
IC50 [1]: 199 nM | IC50 [2]: 177 nM | IC50 [3]: 198 nM | IC50 [4]: 188 nM | IC50 [5]: 181 nM | viability, T/C [8]: 91.5% | viability, T/C [9]: 85.6% | viability, T/C [10]: 91.6% | viability, T/C [11]: 76.1% | viability, T/C [36]: 32.1% | viability, T/C [37]: 3.58% | viability, T/C [14]: 95.3% | viability, T/C [15]: 93.8% | viability, T/C [16]: 80.8% | viability, T/C [17]: 67.6% | viability, T/C [38]: 33.5% | viability, T/C [39]: 3.78% | viability, T/C [20]: 106% | viability, T/C [21]: 100% | viability, T/C [22]: 85.6% | viability, T/C [23]: 70.5% | viability, T/C [40]: 36.3% | viability, T/C [41]: 3.36% | viability, T/C [26]: 95.5% | viability, T/C [27]: 111% | viability, T/C [28]: 94.2% | viability, T/C [29]: 70.5% | viability, T/C [42]: 33.1% | viability, T/C [43]: 4.2% | viability, T/C [32]: 113% | viability, T/C [33]: 97.6% | viability, T/C [34]: 94.1% | viability, T/C [35]: 64.8% | viability, T/C [44]: 34.8% | viability, T/C [45]: 6.35%

COc1cc(Nc2ncc3c(n2)-c2ccc(Cl)cc2C(c2c(F)cccc2OC)=NC3)ccc1C(=O)O + NC1CCC(NC2CC2c2ccccc2)CC1
IC50 [1]: 218 nM | IC50 [2]: 172 nM | IC50 [3]: 201 nM | IC50 [4]: 229 nM | IC50 [5]: 229 nM | viability, T/C [8]: 87.8% | viability, T/C [9]: 80.6% | viability, T/C [10]: 81.6% | viability, T/C [11]: 73.5% | viability, T/C [36]: 38.9% | viability, T/C [37]: 6.3% | viability, T/C [14]: 96.4% | viability, T/C [15]: 86.7% | viability, T/C [16]: 79.8% | viability, T/C [17]: 61.6% | viability, T/C [38]: 36.6% | viability, T/C [39]: 5.23% | viability, T/C [20]: 104% | viability, T/C [21]: 87.6% | viability, T/C [22]: 91.4% | viability, T/C [23]: 71% | viability, T/C [40]: 36.2% | viability, T/C [41]: 5.15% | viability, T/C [26]: 110% | viability, T/C [27]: 94.1% | viability, T/C [28]: 94.4% | viability, T/C [29]: 83.7% | viability, T/C [42]: 36.9% | viability, T/C [43]: 4.29% | viability, T/C [32]: 108% | viability, T/C [33]: 85.3% | viability, T/C [34]: 89.9% | viability, T/C [35]: 83.7% | viability, T/C [44]: 37.1% | viability, T/C [45]: 2.91%

Nc1ccn(C2OC(CO)C(O)C2(F)F)c(=O)n1 (centres undefined)
viability, T/C (compound 0.000949 µM): 64.8% and 61.2% | viability, T/C (compound 0.003 µM): 42.9% and 39.4% | viability, T/C (compound 0.00949 µM): 35.1% and 35% | viability, T/C (compound 0.03 µM): 37.9% and 33.9% | viability, T/C (compound 0.0949 µM): 36.3% and 30.8% | viability, T/C (compound 0.3 µM): 32.1% and 25.6% | IC50 (curve of compound): 2.05 nM and 1.79 nM
